Measured values taken from patent US8158628B2, “Sulfonylated 1,2,3,4-tetrahydropyrrolo[1,2-a]pyrazine compounds and their use as pharmaceuticals” (Gruenenthal GmbH, priority 2009, dated 2012).

Experiments:
[1] = molecular target: T1, human B1R (Homo sapiens, UniProt P46663); assay: FLIPR Ca2+ functional assay, B1R antagonism, human B1R in CHO K1 cells; type: cell-based; conditions: test substance 10 μM; hB1R CHO K1 cells; agonist Lys-Des-Arg9 bradykinin at EC80; % of maximum achievable inhibition
T1 construct: expressed in transfected cells; host or cells: CHO K1 cells (Chinese hamster ovary), stably transfected
T1 sequence (P46663 1-353): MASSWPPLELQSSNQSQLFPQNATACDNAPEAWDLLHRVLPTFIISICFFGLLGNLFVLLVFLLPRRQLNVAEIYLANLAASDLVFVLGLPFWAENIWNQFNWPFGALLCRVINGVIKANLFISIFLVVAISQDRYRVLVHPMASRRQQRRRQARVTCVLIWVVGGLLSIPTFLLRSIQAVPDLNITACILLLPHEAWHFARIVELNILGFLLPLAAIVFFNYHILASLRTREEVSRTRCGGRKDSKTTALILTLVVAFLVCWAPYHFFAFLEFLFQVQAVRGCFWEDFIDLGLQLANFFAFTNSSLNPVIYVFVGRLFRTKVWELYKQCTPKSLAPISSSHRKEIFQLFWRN
In short: (§1)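 IC50 values come from varied compound concentrations applied 10-20 min before an EC80 agonist challenge, with Des-Arg9 bradykinin for rat and Lys-Des-Arg9 bradykinin for human receptor. Ca2+ influx in Fluo-4-loaded CHO K1 transfectants was measured by FLIPR peak fluorescence. Data are % inhibition vs maximum, n=2-3, N>=2.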

[2] = molecular target: T2, B1R of the rat (Rattus norvegicus, UniProt P97583); assay: FLIPR Ca2+ functional assay, B1R antagonism, rat B1R in CHO K1 cells; type: cell-based; conditions: test substance 10 μM; rB1R CHO K1 cells; agonist Des-Arg9 bradykinin at EC80; % of maximum achievable inhibition
T2 construct: expressed in transfected cells; host or cells: CHO K1 cells (Chinese hamster ovary), stably transfected
T2 sequence (P97583 1-337): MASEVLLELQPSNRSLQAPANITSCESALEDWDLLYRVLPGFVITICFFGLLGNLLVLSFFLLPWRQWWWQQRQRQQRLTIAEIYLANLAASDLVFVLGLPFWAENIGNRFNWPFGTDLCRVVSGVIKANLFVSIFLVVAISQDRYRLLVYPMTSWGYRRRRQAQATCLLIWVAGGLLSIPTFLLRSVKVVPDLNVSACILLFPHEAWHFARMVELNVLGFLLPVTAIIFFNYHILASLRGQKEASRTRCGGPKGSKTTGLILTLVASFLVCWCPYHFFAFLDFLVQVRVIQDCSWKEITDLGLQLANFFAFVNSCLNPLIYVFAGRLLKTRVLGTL
In short: as §1

Row | SMILES | inhibition at 10 µM [1] | inhibition at 10 µM [2]
1 | Cc1ccc(S(=O)(=O)N2CCn3cccc3C2CC(=O)NC2CCc3cc(CN(C)C)ccc3C2)cc1 (centres unmarked) [Example 58, N-[6-(Dimethylaminomethyl)-1,2,3,4-tetrahydro-naphthalen-2-yl]-2-[2-(p-tolylsulfonyl)-1,2,3,4-tetrahydro-pyrrolo[1,2-a]pyrazin-1-yl]-acetamide] | 100% | 103%
2 | Cc1ccc(S(=O)(=O)N2CCn3cccc3C2CC(=O)NC2CCc3cc(CNC(C)(C)C)ccc3C2)cc1Cl (centres unmarked) [Example 60, N-[6-[(tert-Butylamino)-methyl]-1,2,3,4-tetrahydro-naphthalen-2-yl]-2-[2-[(3-chloro-4-methyl-phenyl)sulfonyl]-1,2,3,4-tetrahydro-pyrrolo[1,2-a]pyrazin-1-yl]-acetamide] | 99.8% | 99.5%
3 | CCC(C)NCc1ccc2c(c1)CCC(NC(=O)CC1c3cccn3CCN1S(=O)(=O)c1ccc(C)cc1)C2 (centres unmarked) [Example 62, N-[6-[(1-Methyl-propylamino)-methyl]-1,2,3,4-tetrahydro-naphthalen-2-yl]-2-[2-(p-tolylsulfonyl)-1,2,3,4-tetrahydro-pyrrolo[1,2-a]pyrazin-1-yl]-acetamide] | 99.2% | 98.4%
4 | CCC(C)NCc1ccc2c(c1)CCC(NC(=O)CC1c3cccn3CCN1S(=O)(=O)c1ccc(C)c(Cl)c1)C2 (centres unmarked) [Example 63, 2-[2-[(3-Chloro-4-methyl-phenyl)sulfonyl]-1,2,3,4-tetrahydro-pyrrolo[1,2-a]pyrazin-1-yl]-N-[6-[(1-methyl-propylamino)-methyl]-1,2,3,4-tetrahydro-naphthalen-2-yl]-acetamide] | 99.7% | 91.1%
5 | CC(C)(C)NCc1ccc2c(c1)CCC(NC(=O)CC1c3cccn3CCN1S(=O)(=O)c1cccc(C(F)(F)F)c1)C2 (centres unmarked) [Example 64, N-[6-[(tert-Butylamino)-methyl]-1,2,3,4-tetrahydro-naphthalen-2-yl]-2-[2-[[3-(trifluoromethyl)phenyl]sulfonyl]-1,2,3,4-tetrahydro-pyrrolo[1,2-a]pyrazin-1-yl]-acetamide] | 99.9% | 102%
6 | CCC(C)NCc1ccc2c(c1)CCC(NC(=O)CC1c3cccn3CCN1S(=O)(=O)c1cccc(C(F)(F)F)c1)C2 (centres unmarked) [Example 65, N-[6-[(1-Methyl-propylamino)-methyl]-1,2,3,4-tetrahydro-naphthalen-2-yl]-2-[2-[[3-(trifluoromethyl)phenyl]sulfonyl]-1,2,3,4-tetrahydro-pyrrolo[1,2-a]pyrazin-1-yl]-acetamide] | 99.1% | 98.7%
7 | O=C(CC1c2cccn2CCN1S(=O)(=O)c1cccc(C(F)(F)F)c1)NC1CCc2cc(CN3CCOCC3)ccc2C1 (centres unmarked) [Example 67, N-[6-(Morpholin-4-yl-methyl)-1,2,3,4-tetrahydro-naphthalen-2-yl]-2-[2-[[3-(trifluoromethyl)phenyl]sulfonyl]-1,2,3,4-tetrahydro-pyrrolo[1,2-a]pyrazin-1-yl]-acetamide] | 99.7% | 101%
8 | O=C(CC1c2cccn2CCN1S(=O)(=O)c1cccc(C(F)(F)F)c1)NC1CCc2cc(CN3CCCc4ccccc43)ccc2C1 (centres unmarked) [Example 69, N-[6-(1,2,3,4-Tetrahydro-quinolin-1-yl-methyl)-1,2,3,4-tetrahydro-naphthalen-2-yl]-2-[2-[[3-(trifluoromethyl)phenyl]sulfonyl]-1,2,3,4-tetrahydro-pyrrolo[1,2-a]pyrazin-1-yl]-acetamide] | 62.8% | 90.7%
9 | Cc1ccc(S(=O)(=O)N2CCn3cccc3C2CC(=O)NC2CCc3cc(CN4C5CCCC4CC5)ccc3C2)cc1Cl (centres unmarked) [Example 71, N-[6-(8-Azabicyclo[3.2.1]octan-8-yl-methyl)-1,2,3,4-tetrahydro-naphthalen-2-yl]-2-[2-[(3-chloro-4-methyl-phenyl)sulfonyl]-1,2,3,4-tetrahydro-pyrrolo[1,2-a]pyrazin-1-yl]-acetamide] | 99.8% | 102%
10 | Cc1ccc(S(=O)(=O)N2CCn3cccc3C2CC(=O)NC2CCCc3cc(CNC(C)(C)C)ccc32)cc1 (centres unmarked) [Example 72, N-[6-[(tert-Butylamino)-methyl]-1,2,3,4-tetrahydro-naphthalen-1-yl]-2-[2-(p-tolylsulfonyl)-1,2,3,4-tetrahydro-pyrrolo[1,2-a]pyrazin-1-yl]-acetamide] | 99.9% | 101%
11 | Cc1ccc(S(=O)(=O)N2CCn3cccc3C2CC(=O)NC2CCc3cc(CN(C)C(C)(C)C)ccc3C2)cc1 (centres unmarked) [Example 73, N-[6-[(tert-Butyl-methyl-amino)-methyl]-1,2,3,4-tetrahydro-naphthalen-2-yl]-2-[2-(p-tolylsulfonyl)-1,2,3,4-tetrahydro-pyrrolo[1,2-a]pyrazin-1-yl]-acetamide] | 99.8% | 103%

Results, then the molecule that gave them:

Row | inhibition at 10 µM [1] | inhibition at 10 µM [2] | SMILES
12 | 99.8% | 99.4% | Cc1ccc(S(=O)(=O)N2CCn3cccc3C2CC(=O)NC2CCCc3cc(CN4CCN(C)CC4)ccc32)cc1Cl (centres unmarked) [Example 55, 2-[2-[(3-Chloro-4-methyl-phenyl)sulfonyl]-1,2,3,4-tetrahydro-pyrrolo[1,2-a]pyrazin-1-yl]-N-[6-[(4-methyl-piperazin-1-yl)-methyl]-1,2,3,4-tetrahydro-naphthalen-1-yl]-acetamide]
13 | 99.7% | 98% | Cc1ccc(S(=O)(=O)N2CCn3cccc3C2CC(=O)NC2CCCc3cc(CN4CCCCC4)ccc32)cc1Cl (centres unmarked) [Example 56, 2-[2-[(3-Chloro-4-methyl-phenyl)sulfonyl]-1,2,3,4-tetrahydro-pyrrolo[1,2-a]pyrazin-1-yl]-N-[6-(piperidin-1-yl-methyl)-1,2,3,4-tetrahydro-naphthalen-1-yl]-acetamide]
14 | 98.5% | 101% | Cc1ccc(S(=O)(=O)N2CCn3cccc3C2CC(=O)NC2CCCc3cc(CN4CCOCC4)ccc32)cc1Cl (centres unmarked) [Example 57, 2-[2-[(3-Chloro-4-methyl-phenyl)sulfonyl]-1,2,3,4-tetrahydro-pyrrolo[1,2-a]pyrazin-1-yl]-N-[6-(morpholin-4-yl-methyl)-1,2,3,4-tetrahydro-naphthalen-1-yl]-acetamide]
15 | 99.8% | 76.2% | CN1CCN(Cc2ccc3c(c2)CCCC3NC(=O)CC2c3cccn3CCN2S(=O)(=O)c2cccc(C(F)(F)F)c2)CC1 (centres unmarked) [Example 59, N-[6-[(4-Methyl-piperazin-1-yl)-methyl]-1,2,3,4-tetrahydro-naphthalen-1-yl]-2-[2-[[3-(trifluoromethyl)phenyl]sulfonyl]-1,2,3,4-tetrahydro-pyrrolo[1,2-a]pyrazin-1-yl]-acetamide]
16 | 99.7% | 100% | Cc1ccc(S(=O)(=O)N2CCn3cccc3C2CC(=O)NC2CCc3cc(CN4CCN(C)CC4)ccc3C2)cc1Cl (centres unmarked) [Example 61, 2-[2-[(3-Chloro-4-methyl-phenyl)sulfonyl]-1,2,3,4-tetrahydro-pyrrolo[1,2-a]pyrazin-1-yl]-N-[6-[(4-methyl-piperazin-1-yl)-methyl]-1,2,3,4-tetrahydro-naphthalen-2-yl]-acetamide]
17 | 99.9% | 100% | Cc1ccc(S(=O)(=O)N2CCn3cccc3C2CC(=O)NC2CCc3cc(CN4CCOCC4)ccc3C2)cc1Cl (centres unmarked) [Example 66, 2-[2-[(3-Chloro-4-methyl-phenyl)sulfonyl]-1,2,3,4-tetrahydro-pyrrolo[1,2-a]pyrazin-1-yl]-N-[6-(morpholin-4-yl-methyl)-1,2,3,4-tetrahydro-naphthalen-2-yl]-acetamide]
18 | 99.7% | 98.9% | CN1CCN(Cc2ccc3c(c2)CCC(NC(=O)CC2c4cccn4CCN2S(=O)(=O)c2cccc(C(F)(F)F)c2)C3)CC1 (centres unmarked) [Example 68, N-[6-[(4-Methyl-piperazin-1-yl)-methyl]-1,2,3,4-tetrahydro-naphthalen-2-yl]-2-[2-[[3-(trifluoromethyl)phenyl]sulfonyl]-1,2,3,4-tetrahydro-pyrrolo[1,2-a]pyrazin-1-yl]-acetamide]
19 | 99.9% | 102% | Cc1ccc(S(=O)(=O)N2CCn3cccc3C2CC(=O)NC2CCCc3cc(CNC(C)(C)C)ccc32)cc1Cl (centres unmarked) [Example 70, N-[6-[(tert-Butylamino)-methyl]-1,2,3,4-tetrahydro-naphthalen-1-yl]-2-[2-[(3-chloro-4-methyl-phenyl)sulfonyl]-1,2,3,4-tetrahydro-pyrrolo[1,2-a]pyrazin-1-yl]-acetamide]
